Test results taken from PubChem BioAssay AID330 (DTP/NCI, 2004).
Where “and” joins values, the source holds several entries; their conditions need not be identical. Equal entries are not always repeated. Toxic doses and inconclusive results are not listed. The calls were made as follows: active = survival T/C of 150% or more; inactive = T/C below 125% in these data.

Test system: P388 leukemia ip, CD2F1 mice, survival T/C
Assay: NCI In Vivo Anticancer Drug Screen. Data for tumor model P388 Leukemia (intraperitoneal) in CD2F1 (CDF1) mice
Settings: endpoint: median survival time, schedule: Q01DX009 (ip), higher = longer survival
How it was run: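 Mice carrying the transplanted tumor received test compound or vehicle. Survival was recorded in each group, and the value is the treated-group measurement divided by that of the vehicle-treated control group.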

Measured: T/C

COc1cc(OC)c(OC)cc1/C=C\c1ccc2ccccc2[n+]1C
inactive: dose: 3.12 mg/kg/injection, vehicle: saline with Tween-80 105 % of control | dose: 6.25 mg/kg/injection, vehicle: saline with Tween-80 110 % of control | dose: 12.5 mg/kg/injection, vehicle: saline with Tween-80 111 % of control and 122 % of control | dose: 25.0 mg/kg/injection, vehicle: saline with Tween-80 123 % of control

COC(=O)C1=C(N)C(C#N)=C(C)C(C)(O)C1 (configuration not stated)
inactive: dose: 50.0 mg/kg/injection, vehicle: Klucel (hydroxypropylcellulose) (HPC) 99 % of control | dose: 100.0 mg/kg/injection, vehicle: Klucel (hydroxypropylcellulose) (HPC) 97 % of control | dose: 200.0 mg/kg/injection, vehicle: Klucel (hydroxypropylcellulose) (HPC) 108 % of control
